In US10016382B2, “Method for decreasing skeletal muscle damage and/or oxidative stress in mammals” (LONZA INC., priority 2014, dated 2018):
Several values for one entry are separate records, joined by “and”; a condition that tells them apart may be missing. Equal values may be shown once.

Test system: Labrador Retrievers
Assay: Activity by Actical monitors, short (sprint) runs, Example 1
Type: in vivo, dog
Settings: Ex.1, 250 mg/d; for Activity short runs, Least Sq Mean: average of weekly short runs over 13 wk, mixed model
Text: Each test dog wore an Actical activity monitor from Philips Respironics on a collar for the short higher intensity runs and also wore an Actical activity monitor for the weekly longer endurance runs. The activity data was downloaded into spread sheets along with each dogs identity. Twenty four hours after each long run during the 13 wk running program each of the dogs were scored by kennel staff for soreness or any type of lameness The exercise program was decreased in a tapering program during wk 11 and 12 to allow the dogs to rest for the final long run completed on wk 13. Pre-run serum samples from each test dog was taken 24 hr before the last endurance run. The heart rate and basal body temperature was determined for each test dog prior to the last long endurance run. Exercise Regimen: Each group of dogs were put through two different types of exercise programs on a weekly basis. The exercise regimen consisted of both sprint (short runs) and endurance (long runs) type work during the 90 day period. Each group of dogs were put through a simulated amount of work that would be equal to competing in an AKC Junior Hunt Test (American […] Club) and also once a week the dogs were put through a simulated endurance run. Each group of test dogs ran the AKC Hunt Test workout 26 times during the 13 wk study which was 2 times per week. During each week, each group ran the test 2 times with 1 day rest between runs. The AKC Hunt Test workout during the initial week amounted to two days of 6 consecutive sprint type retrieves for a minimum of 100 yd each way making a total of 1200 yd per day or 2400 yd per wk. The dogs brought back a bumper (equivalent to a duck or mark) to the handler during the exercise. […] The length of time involved in the intense exercise simulating the AKC Hunt Test was approximately 10 to 15 minutes per dog each of the short run days and was equal for both treatments. The rest time between retrieves (sprints) in a set during the simulated weekly AKC Hunt Test was equal for all dogs. Performance and Recovery Time: An Actical monitor (Philips Respironics) was worn around the neck of each dog on a collar and utilized to evaluate the amount of movement (measured total movements and intensity) for each dog for the purpose of evaluating equal work between treatments and also to evaluate the individual work intensity while completing the daily retrieves. Each dog wore the Actical monitor for each long run and wore the Actical monitor for the final 15 mile run. The Actical monitor data was downloaded to a computer for evaluation. Statistical Methods: GraphPad Prism 6.0 was used to compare means between groups for run time, food intake, body weight, and changes in blood chemistry using an unpaired t-test. Results were considered significant if a p-value of 0.05 was obtained. JMP 10.0.2 was used to create a mixed model for long runs, short runs, body composition, and blood chemistry.

C[N+](C)(C)C[C@H](O)CC(=O)[O-] [L-carnitine]
Activity short runs, APM/lb Mean (Week 3, both sexes): 1479 Movements/Mile/LB BW | Activity short runs, APM/lb Mean (Week 3, females): 1636 Movements/Mile/LB BW | Activity short runs, APM/lb Mean (Week 3, males): 1338 Movements/Mile/LB BW | Activity short runs, APM/lb Mean (Week 4, both sexes): 1402 Movements/Mile/LB BW | Activity short runs, APM/lb Mean (Week 4, females): 1608 Movements/Mile/LB BW | Activity short runs, APM/lb Mean (Week 4, males): 1234 Movements/Mile/LB BW | Activity short runs, APM/lb Mean (Week 5, both sexes): 1314 Movements/Mile/LB BW | Activity short runs, APM/lb Mean (Week 5, females): 1362 Movements/Mile/LB BW | Activity short runs, APM/lb Mean (Week 5, males): 1275 Movements/Mile/LB BW | Activity short runs, APM/lb Mean (Week 6, both sexes): 1375 Movements/Mile/LB BW | Activity short runs, APM/lb Mean (Week 6, females): 1340 Movements/Mile/LB BW | Activity short runs, APM/lb Mean (Week 6, males): 1403 Movements/Mile/LB BW | Activity short runs, APM/lb Mean (Week 7, both sexes): 1380 Movements/Mile/LB BW | Activity short runs, APM/lb Mean (Week 7, females): 1347 Movements/Mile/LB BW | Activity short runs, APM/lb Mean (Week 7, males): 1407 Movements/Mile/LB BW | Activity short runs, APM/lb Mean (Week 8, both sexes): 1249 Movements/Mile/LB BW | Activity short runs, APM/lb Mean (Week 8, females): 1330 Movements/Mile/LB BW | Activity short runs, APM/lb Mean (Week 8, males): 1183 Movements/Mile/LB BW | Activity short runs, APM/lb Mean (Week 9, both sexes): 1234 Movements/Mile/LB BW | Activity short runs, APM/lb Mean (Week 9, females): 1388 Movements/Mile/LB BW | Activity short runs, APM/lb Mean (Week 9, males): 1108 Movements/Mile/LB BW | Activity short runs, APM/lb Mean (Week 10, both sexes): 1114 Movements/Mile/LB BW | Activity short runs, APM/lb Mean (Week 10, females): 1222 Movements/Mile/LB BW | Activity short runs, APM/lb Mean (Week 10, males): 1026 Movements/Mile/LB BW | Activity short runs, APM/lb Mean (Week 11, both sexes): 1111 Movements/Mile/LB BW | Activity short runs, APM/lb Mean (Week 11, females): 1128 Movements/Mile/LB BW | Activity short runs, APM/lb Mean (Week 11, males): 1098 Movements/Mile/LB BW | Activity short runs, APM/lb Mean (Week 12, both sexes): 2500 Movements/Mile/LB BW | Activity short runs, APM/lb Mean (Week 12, females): 2804 Movements/Mile/LB BW | Activity short runs, APM/lb Mean (Week 12, males): 2251 Movements/Mile/LB BW | Activity short runs, APM/lb Mean (Week 13, both sexes): 1741 Movements/Mile/LB BW | Activity short runs, APM/lb Mean (Week 13, females): 1661 Movements/Mile/LB BW | Activity short runs, APM/lb Mean (Week 13, males): 1806 Movements/Mile/LB BW | Activity short runs, Least Sq Mean (both sexes): 1451 Movements/Mile/LB BW and 1451.0357 Movements/Mile/LB BW | Activity short runs, Least Sq Mean (females): 1522 Movements/Mile/LB BW and 1528.6226 Movements/Mile/LB BW | Activity short runs, Least Sq Mean (males): 1373.4487 Movements/Mile/LB BW
